Values after ≈ are worked out from the molar mass of the structure shown.
Tested on: not listed separately
Assay: Cytotoxicity against Homo sapiens (human) HCT cells assessed as cell viability at 6.25 ug/ml after 48 hr by MTT assay
Type: functional
Conditions: read-out: Activity

Structure (SMILES)	viability at 6.25 µg/mL [%]
N#CC1=C(N)Oc2c(ccc3ccc(/C=C/c4ccc(Cl)cc4)nc23)C1c1ccc(Br)cc1 (stereo unspecified)	69.8

Tested on: not listed separately
Assay: Cytotoxicity against Homo sapiens (human) HCT cells assessed as cell viability at 25 ug/ml after 48 hr by MTT assay
Type: functional
Conditions: read-out: Activity

Structure (SMILES)	viability at 25 µg/mL [%]
N#CC1=C(N)Oc2c(ccc3ccc(/C=C/c4ccc(Cl)cc4)nc23)C1c1ccc(Br)cc1 (stereo unspecified)	34.2

Tested on: not listed separately
Assay: Cytotoxicity against Homo sapiens (human) HCT cells assessed as cell viability at 50 ug/ml after 48 hr by MTT assay
Type: functional
Conditions: read-out: Activity

Structure (SMILES)	viability at 50 µg/mL [%]
N#CC1=C(N)Oc2c(ccc3ccc(/C=C/c4ccc(Cl)cc4)nc23)C1c1ccc(Br)cc1 (stereo unspecified)	27.4

Tested on: HepG2
Assay: Cytotoxicity against Homo sapiens (human) HepG2 cells assessed as cell viability at 12.5 ug/ml after 48 hr by MTT assay
Type: functional
Conditions: HepG2, 48 h, read-out: Activity

Structure (SMILES)	viability at 12.5 µg/mL [%]
N#CC1=C(N)Oc2c(ccc3ccc(/C=C/c4ccc(Cl)cc4)nc23)C1c1ccc(Br)cc1 (stereo unspecified)	69.6

Tested on: HepG2
Assay: Cytotoxicity against Homo sapiens (human) HepG2 cells assessed as cell viability at 50 ug/ml after 48 hr by MTT assay
Type: functional
Conditions: HepG2, 48 h, read-out: Activity

Structure (SMILES)	viability at 50 µg/mL [%]
N#CC1=C(N)Oc2c(ccc3ccc(/C=C/c4ccc(Cl)cc4)nc23)C1c1ccc(Br)cc1 (stereo unspecified)	33.8

Tested on: MCF7
Assay: Cytotoxicity against Homo sapiens (human) MCF7 cells assessed as cell viability at 50 ug/ml after 48 hr by MTT assay
Type: functional
Conditions: MCF7, 48 h, read-out: Activity

Structure (SMILES)	viability at 50 µg/mL [%]
N#CC1=C(N)Oc2c(ccc3ccc(/C=C/c4ccc(Cl)cc4)nc23)C1c1ccc(Br)cc1 (stereo unspecified)	32.4

Tested on: HepG2
Assay: Cytotoxicity against Homo sapiens (human) HepG2 cells assessed as cell viability at 25 ug/ml after 48 hr by MTT assay
Type: functional
Conditions: HepG2, 48 h, read-out: Activity

Structure (SMILES)	viability at 25 µg/mL [%]
N#CC1=C(N)Oc2c(ccc3ccc(/C=C/c4ccc(Cl)cc4)nc23)C1c1ccc(Br)cc1 (stereo unspecified)	44.9

Tested on: not listed separately
Assay: Cytotoxicity against Homo sapiens (human) HCT cells after 48 hr by MTT assay
Type: functional, cell-based
Conditions: not given

Structure (SMILES)	IC50 [µg/mL]
N#CC1=C(N)Oc2c(ccc3ccc(/C=C/c4ccc(Cl)cc4)nc23)C1c1ccc(Br)cc1 (stereo unspecified)	11.9 (≈ 23.1 µM)

Tested on: MCF7
Assay: Cytotoxicity against Homo sapiens (human) MCF7 cells assessed as cell viability at 6.25 ug/ml after 48 hr by MTT assay
Type: functional
Conditions: MCF7, 48 h, read-out: Activity

Structure (SMILES)	viability at 6.25 µg/mL [%]
N#CC1=C(N)Oc2c(ccc3ccc(/C=C/c4ccc(Cl)cc4)nc23)C1c1ccc(Br)cc1 (stereo unspecified)	61.8

Tested on: MCF7
Assay: Cytotoxicity against Homo sapiens (human) MCF7 cells assessed as cell viability at 12.5 ug/ml after 48 hr by MTT assay
Type: functional
Conditions: MCF7, 48 h, read-out: Activity

Structure (SMILES)	viability at 12.5 µg/mL [%]
N#CC1=C(N)Oc2c(ccc3ccc(/C=C/c4ccc(Cl)cc4)nc23)C1c1ccc(Br)cc1 (stereo unspecified)	50.3

Tested on: not listed separately
Assay: Cytotoxicity against Homo sapiens (human) HCT cells assessed as cell viability at 1.56 ug/ml after 48 hr by MTT assay
Type: functional
Conditions: read-out: Activity

Structure (SMILES)	viability at 1.56 µg/mL [%]
N#CC1=C(N)Oc2c(ccc3ccc(/C=C/c4ccc(Cl)cc4)nc23)C1c1ccc(Br)cc1 (stereo unspecified)	80.4

Tested on: not listed separately
Assay: Cytotoxicity against Homo sapiens (human) HCT cells assessed as cell viability at 3.125 ug/ml after 48 hr by MTT assay
Type: functional
Conditions: read-out: Activity

Structure (SMILES)	viability at 3.125 µg/mL [%]
N#CC1=C(N)Oc2c(ccc3ccc(/C=C/c4ccc(Cl)cc4)nc23)C1c1ccc(Br)cc1 (stereo unspecified)	72.5

Tested on: MCF7
Assay: Cytotoxicity against Homo sapiens (human) MCF7 cells assessed as cell viability at 1.56 ug/ml after 48 hr by MTT assay
Type: functional
Conditions: MCF7, 48 h, read-out: Activity

Structure (SMILES)	viability at 1.56 µg/mL [%]
N#CC1=C(N)Oc2c(ccc3ccc(/C=C/c4ccc(Cl)cc4)nc23)C1c1ccc(Br)cc1 (stereo unspecified)	98.5

Tested on: MCF7
Assay: Cytotoxicity against Homo sapiens (human) MCF7 cells assessed as cell viability at 25 ug/ml after 48 hr by MTT assay
Type: functional
Conditions: MCF7, 48 h, read-out: Activity

Structure (SMILES)	viability at 25 µg/mL [%]
N#CC1=C(N)Oc2c(ccc3ccc(/C=C/c4ccc(Cl)cc4)nc23)C1c1ccc(Br)cc1 (stereo unspecified)	39.9

Tested on: not listed separately
Assay: Cytotoxicity against Homo sapiens (human) HCT cells assessed as cell viability at 12.5 ug/ml after 48 hr by MTT assay
Type: functional
Conditions: read-out: Activity

Structure (SMILES)	viability at 12.5 µg/mL [%]
N#CC1=C(N)Oc2c(ccc3ccc(/C=C/c4ccc(Cl)cc4)nc23)C1c1ccc(Br)cc1 (stereo unspecified)	47.8

Tested on: HepG2
Assay: Cytotoxicity against Homo sapiens (human) HepG2 cells assessed as cell viability at 3.125 ug/ml after 48 hr by MTT assay
Type: functional
Conditions: HepG2, 48 h, read-out: Activity

Structure (SMILES)	viability at 3.125 µg/mL [%]
N#CC1=C(N)Oc2c(ccc3ccc(/C=C/c4ccc(Cl)cc4)nc23)C1c1ccc(Br)cc1 (stereo unspecified)	87.9

Tested on: MCF7
Assay: Cytotoxicity against Homo sapiens (human) MCF7 cells assessed as cell viability at 3.125 ug/ml after 48 hr by MTT assay
Type: functional
Conditions: MCF7, 48 h, read-out: Activity

Structure (SMILES)	viability at 3.125 µg/mL [%]
N#CC1=C(N)Oc2c(ccc3ccc(/C=C/c4ccc(Cl)cc4)nc23)C1c1ccc(Br)cc1 (stereo unspecified)	83.1

Tested on: HepG2
Assay: Cytotoxicity against Homo sapiens (human) HepG2 cells assessed as cell viability at 1.56 ug/ml after 48 hr by MTT assay
Type: functional
Conditions: HepG2, 48 h, read-out: Activity

Structure (SMILES)	viability at 1.56 µg/mL [%]
N#CC1=C(N)Oc2c(ccc3ccc(/C=C/c4ccc(Cl)cc4)nc23)C1c1ccc(Br)cc1 (stereo unspecified)	94.6

Tested on: HepG2
Assay: Cytotoxicity against Homo sapiens (human) HepG2 cells assessed as cell viability at 6.25 ug/ml after 48 hr by MTT assay
Type: functional
Conditions: HepG2, 48 h, read-out: Activity

Structure (SMILES)	viability at 6.25 µg/mL [%]
N#CC1=C(N)Oc2c(ccc3ccc(/C=C/c4ccc(Cl)cc4)nc23)C1c1ccc(Br)cc1 (stereo unspecified)	77.2

Tested on: MCF7
Assay: Cytotoxicity against Homo sapiens (human) MCF7 cells after 48 hr by MTT assay
Type: functional, cell-based
Conditions: MCF7, 48 h

Structure (SMILES)	IC50 [µg/mL]
N#CC1=C(N)Oc2c(ccc3ccc(/C=C/c4ccc(Cl)cc4)nc23)C1c1ccc(Br)cc1 (stereo unspecified)	12.5 (≈ 24.3 µM)

Tested on: HepG2
Assay: Cytotoxicity against Homo sapiens (human) HepG2 cells after 48 hr by MTT assay
Type: functional, cell-based
Conditions: HepG2, 48 h

Structure (SMILES)	IC50 [µg/mL]
N#CC1=C(N)Oc2c(ccc3ccc(/C=C/c4ccc(Cl)cc4)nc23)C1c1ccc(Br)cc1 (stereo unspecified)	23.2 (≈ 45.1 µM)
